Reference: ChEMBL document CHEMBL5030556, “Selection and Identification of Novel Antibacterial Agents against Planktonic Growth and Biofilm Formation of Enterococcus faecalis” (J Med Chem, 2021)
In brackets after ≈: the same amount, converted by molar mass. Activity calls are given as the source filed them. The calls are words filed in the database; no cut-off is given here.

Key:
Enterococcus faecalis [1] = assay: Antimicrobial activity against Enterococcus faecalis OG1RF assessed as reduction in visible bacterial growth incubated for 16 to 20 hrs by microdilution broth assay; type: functional; conditions: time 16-20 hrs
Enterococcus faecalis [2] = assay: Bactericidal activity against Enterococcus faecalis OG1RF assessed as reduction in bacterial colonies incubated for 16 to 20 hrs by microdilution broth analysis; type: functional; conditions: time 16-20 hrs, read-out: MBC99.9
[3] = Inhibition of Enterococcus faecalis OG1RF YycG autophosphorylation by Kinase-Glo luminescent kinase assay
[4] = Cytotoxicity against african green monkey Vero cells assessed as inhibition of cell growth by MTT assay; type: cell-based; conditions: chlorocebus sabaeus
[5] = Hemolytic activity against human erythrocytes at 50 uM incubated for 1 hr at 570 nm by spectrophotometry; type: ADME, tissue-based, Erythrocyte; conditions: read-out: Activity
[6] = Hemolytic activity against human erythrocytes at 200 uM incubated for 1 hr at 570 nm by spectrophotometry; type: ADME, tissue-based, Erythrocyte; conditions: read-out: Activity
Enterococcus faecalis [7] = assay: Inhibition of biofilm formation of Enterococcus faecalis FB-1 assessed as inhibitory rate of formation at 100 uM for 24 hrs measured at 570 nm by crystal violet staining based spectrophotometry; type: functional
Enterococcus faecalis [8] = assay: Bacteriostatic activity against planktonic cells of Enterococcus faecalis OG1RF measured by microdilution broth assay; type: functional, organism-based
Enterococcus faecalis [9] = assay: Antibiofilm activity against Enterococcus faecalis FB-1 assessed as inhibition of biofilm maturation measured after 24 hr; type: functional, organism-based
Enterococcus faecalis [10] = assay: Antibiofilm activity against Enterococcus faecalis FB-1 assessed as inhibition of biofilm maturation at 1.56 uM measured after 24 hr; type: functional, organism-based
Enterococcus faecalis [11] = assay: Antibiofilm activity against Enterococcus faecalis assessed as reduction in amount of viable biofilm-embedded bacterial cells at 50 uM measured by YTO 9/PI staining followed by confocal laser scanning microscopy; type: functional
Enterococcus faecalis [12] = assay: Antibacterial activity against Enterococcus faecalis ATCC 29212 assessed as reduction in visible bacterial growth incubated for 16 to 20 hrs by microdilution broth assay; type: functional; conditions: time 16-20 hrs
Enterococcus faecalis [13] = assay: Antibacterial activity against Enterococcus faecalis OG1RF assessed as reduction in visible bacterial growth incubated for 16 to 20 hrs by microdilution broth assay; type: functional; conditions: time 16-20 hrs
Enterococcus faecalis [14] = assay: Antibacterial activity against Enterococcus faecalis FB-1 assessed as reduction in visible bacterial growth incubated for 16 to 20 hrs by microdilution broth assay; type: functional; conditions: time 16-20 hrs
[15] = test system: Staphylococcus epidermidis; assay: Antibacterial activity against Staphylococcus epidermidis ATCC 35984 assessed as reduction in visible bacterial growth incubated for 16 to 20 hrs by microdilution broth assay; type: functional; conditions: time 16-20 hrs
[16] = test system: Staphylococcus epidermidis; assay: Antibacterial activity against Staphylococcus epidermidis ATCC 12228 assessed as reduction in visible bacterial growth incubated for 16 to 20 hrs by microdilution broth assay; type: functional; conditions: time 16-20 hrs
Staphylococcus aureus [17] = assay: Antibacterial activity against Staphylococcus aureus ATCC 29213 assessed as reduction in visible bacterial growth incubated for 16 to 20 hrs by microdilution broth assay; type: functional; conditions: time 16-20 hrs
Staphylococcus aureus [18] = assay: Antibacterial activity against Staphylococcus aureus ATCC 35556 assessed as reduction in visible bacterial growth incubated for 16 to 20 hrs by microdilution broth assay; type: functional; conditions: time 16-20 hrs
Enterococcus faecium = assay: Antibacterial activity against Enterococcus faecium EF16M64 assessed as reduction in visible bacterial growth incubated for 16 to 20 hrs by microdilution broth assay; type: functional; conditions: time 16-20 hrs
Streptococcus agalactiae = assay: Antibacterial activity against Streptococcus agalactiae NSGC64 assessed as reduction in visible bacterial growth incubated for 16 to 20 hrs by microdilution broth assay; type: functional; conditions: time 16-20 hrs
Escherichia coli = assay: Antibacterial activity against Escherichia coli […] assessed as reduction in visible bacterial growth incubated for 16 to 20 hrs by microdilution broth assay; type: functional; conditions: time 16-20 hrs
Enterococcus faecalis [19] = assay: Binding affinity to Enterococcus faecalis FB-1 YycG assessed as slow association and rapid dissociation measured by Octet RED96 response assay
Enterococcus faecalis [20] = assay: Bactericidal activity against Enterococcus faecalis OG1RF assessed as reductions in colony forming unit in presence of ampicillin within 3 hrs by time-killing assay; type: functional, organism-based
Enterococcus faecalis [21] = assay: Bactericidal activity against Enterococcus faecalis OG1RF assessed as reductions in colony forming unit in presence of ampicillin after 24 hrs by time-killing assay; type: functional, organism-based
Enterococcus faecalis [22] = assay: Antibiofilm activity against Enterococcus faecalis FB-1 assessed as inhibition of biofilm infection at 25 uM by fluid shear system; type: functional, organism-based
Enterococcus faecalis [23] = assay: Antibiofilm activity against Enterococcus faecalis FB-1 assessed as eradication of mature biofilm by semiquantitative microtiter assay; type: functional, organism-based
Enterococcus faecalis [24] = assay: Antibacterial activity against clinical strain Enterococcus faecalis assessed as inhibition of bacterial growth; type: functional
Enterococcus faecalis [25] = assay: Antibacterial activity against clinical strain vancomycin-resistant Enterococcus faecalis assessed as inhibition of bacterial growth; type: functional
Enterococcus faecalis [26] = assay: Antibacterial activity against clinical strain linozelid-resistant Enterococcus faecalis assessed as inhibition of bacterial growth; type: functional
Enterococcus faecalis [27] = assay: Antibiofilm activity against Enterococcus faecalis assessed as inhibition of biofilm at 1/2 times of MIC incubated for 24 hrs; type: functional; set-up: scale not given: the % may be the effect or the level left
Enterococcus faecalis [28] = assay: Antibiofilm activity against Enterococcus faecalis assessed as fold reduction in yycG gene expression at 25 uM incubated for 6 hrs by qRT-PCR analysis; type: functional
Enterococcus faecalis [29] = assay: Antibiofilm activity against Enterococcus faecalis assessed as fold reduction in yycF gene expression at 25 uM incubated for 6 hrs by qRT-PCR analysis; type: functional
Enterococcus faecalis [30] = assay: Antibiofilm activity against Enterococcus faecalis assessed as fold reduction in […] gene expression at 25 uM incubated for 6 hrs by qRT-PCR analysis; type: functional
Enterococcus faecalis [31] = assay: Antibiofilm activity against Enterococcus faecalis assessed as fold reduction in epbOX gene expression at 25 uM incubated for 6 hrs by qRT-PCR analysis; type: functional
Enterococcus faecalis [32] = assay: Antibiofilm activity against Enterococcus faecalis assessed as fold reduction in fsrB gene expression at 25 uM incubated for 6 hrs by qRT-PCR analysis; type: functional
Enterococcus faecalis [33] = assay: Antibiofilm activity against Enterococcus faecalis assessed as fold reduction in gelE gene expression at 25 uM incubated for 6 hrs by qRT-PCR analysis; type: functional
Enterococcus faecalis [34] = assay: Antibiofilm activity against Enterococcus faecalis assessed as fold reduction in sprE gene expression at 25 uM incubated for 6 hrs by qRT-PCR analysis; type: functional
Enterococcus faecalis [35] = assay: Effect on initial adhesion capacity of Enterococcus faecalis assessed as attached cells at 25 uM for 6 hrs by crystal violet staining based microscopic assay (reference value: 0.412); type: functional
Enterococcus faecalis [36] = assay: Antibacterial activity against ATc induced Enterococcus faecalis OG1RF-asryycG silencing strain assessed as fold reduction in MIC relative to wild type; type: functional
Enterococcus faecalis [37] = assay: Bactericidal activity against Enterococcus faecalis OG1RF assessed as reductions in colony forming unit in presence of vancomycin within 3 hrs by time-killing assay; type: functional, organism-based
Enterococcus faecalis [38] = assay: Bactericidal activity against Enterococcus faecalis OG1RF assessed as reductions in colony forming unit in presence of linezolid within 3 hrs by time-killing assay; type: functional, organism-based
Enterococcus faecalis [39] = assay: Bactericidal activity against Enterococcus faecalis OG1RF assessed as reductions in colony forming unit in presence of vancomycin after 24 hrs by time-killing assay; type: functional, organism-based
Enterococcus faecalis [40] = assay: Bactericidal activity against Enterococcus faecalis OG1RF assessed as reductions in colony forming unit in presence of linezolid after 24 hrs by time-killing assay; type: functional, organism-based

SMILES: Cc1ccc(CSc2nnc(N3C(=O)C(O)=C(C(=O)c4cc5ccccc5o4)C3c3cccc(O)c3)s2)cc1 (centres undefined)
- MIC (Enterococcus faecalis [1]): > 200 µM
- MBC (Enterococcus faecalis [2]): > 200 µM
- IC50 [3]: 1.5 µM
- CC50 [4]: > 200 µM
- hemolysis at 1 h, 50 µM [5]: 4.7%
- hemolysis at 1 h, 200 µM [6]: 6.32%
- inhibition at 100 µM (Enterococcus faecalis [7]): 77.7%
- Activity (Enterococcus faecalis [8]): inactive
- Activity (Enterococcus faecalis [9]): Dose-Dependent Effect
- Activity (Enterococcus faecalis [10]): Active
- Activity (Enterococcus faecalis [11]): 46.93%

SMILES: CC1(C)S[C@@H]2[C@H](NC(=O)[C@H](N)c3ccccc3)C(=O)N2[C@H]1C(=O)O [AMPICILLIN]
- Activity (Enterococcus faecalis [11]): 24.46%

SMILES: CCCCCCCCCC(=O)N[C@@H](Cc1c[nH]c2ccccc12)C(=O)N[C@H](CC(N)=O)C(=O)N[C@@H](CC(=O)O)C(=O)N[C@@H]1C(=O)NCC(=O)N[C@@H](CCCN)C(=O)N[C@@H](CC(=O)O)C(=O)N[C@H](C)C(=O)N[C@@H](CC(=O)O)C(=O)NCC(=O)N[C@H](CO)C(=O)N[C@@H]([C@H](C)CC(=O)O)C(=O)N[C@@H](CC(=O)c2ccccc2N)C(=O)O[C@@H]1C
- Activity (Enterococcus faecalis [11]): 8.45%

SMILES: O=C(C1=C(O)C(=O)N(c2nnc(SCc3ccccc3)s2)C1c1ccccc1)c1cc2ccccc2o1 (centres undefined)
- MIC (Enterococcus faecalis [1]): > 200 µM
- MBC (Enterococcus faecalis [2]): > 200 µM
- IC50 [3]: 22 µM
- CC50 [4]: > 200 µM
- hemolysis at 1 h, 50 µM [5]: 4.16%
- hemolysis at 1 h, 200 µM [6]: 7.01%
- inhibition at 100 µM (Enterococcus faecalis [7]): 72.2%
- Activity (Enterococcus faecalis [8]): inactive
- Activity (Enterococcus faecalis [9]): Dose-Dependent Effect
- Activity (Enterococcus faecalis [11]): 26.66%

SMILES: CCOC(=O)c1c(CN2CCN(C)CC2)n(-c2ccccc2)c2ccc(OS(=O)(=O)c3ccc(C)cc3)cc12
- MIC (Enterococcus faecalis [1]): 25 µM (≈ 13.7 µg/mL)
- MBC (Enterococcus faecalis [2]): 100 µM (≈ 54.8 µg/mL)
- IC50 [3]: 42.9 µM
- CC50 [4]: > 200 µM
- hemolysis at 1 h, 50 µM [5]: 24.1%
- hemolysis at 1 h, 200 µM [6]: 28.2%
- MIC (Enterococcus faecalis [12]): 25 µM (≈ 13.7 µg/mL)
- MIC (Enterococcus faecalis [13]): 25 µM (≈ 13.7 µg/mL)
- MIC (Enterococcus faecalis [14]): 50 µM (≈ 27.4 µg/mL)
- MIC [15]: 12.5 µM (≈ 6.85 µg/mL)
- MIC [16]: 12.5 µM (≈ 6.85 µg/mL)
- MIC (Staphylococcus aureus [17]): 12.5 µM (≈ 6.85 µg/mL)
- MIC (Staphylococcus aureus [18]): 12.5 µM (≈ 6.85 µg/mL)
- MIC (Enterococcus faecium): 25 µM (≈ 13.7 µg/mL)
- MIC (Streptococcus agalactiae): 12.5 µM (≈ 6.85 µg/mL)
- MIC (Escherichia coli): > 200 µM
- inhibition at 100 µM (Enterococcus faecalis [7]): 96.2%
- Activity (Enterococcus faecalis [19]): Active
- Activity (Enterococcus faecalis [20]): Active
- Activity (Enterococcus faecalis [21]): Active
- Activity (Enterococcus faecalis [9]): Dose-Dependent Effect
- Activity (Enterococcus faecalis [22]): Active
- Activity (Enterococcus faecalis [23]): inactive
- Activity (Enterococcus faecalis [11]): 18.29%
- MIC (Enterococcus faecalis [24]): 25 µM (≈ 13.7 µg/mL)
- MIC50 (Enterococcus faecalis [25]): 50 µM (≈ 27.4 µg/mL)
- MIC90 (Enterococcus faecalis [26]): 100 µM (≈ 54.8 µg/mL)
- Activity (Enterococcus faecalis [27]): 74.8%
- fold change (FC) (Enterococcus faecalis [28]): 20
- fold change (FC) (Enterococcus faecalis [29]): 3
- fold change (FC) (Enterococcus faecalis [30]): 2
- fold change (FC) (Enterococcus faecalis [31]): 2
- fold change (FC) (Enterococcus faecalis [32]): 2
- fold change (FC) (Enterococcus faecalis [33]): 2
- fold change (FC) (Enterococcus faecalis [34]): 2
- OD (Enterococcus faecalis [35]): 0.186
- fold change (FC) (Enterococcus faecalis [36]): 4
- Activity (Enterococcus faecalis [37]): Active
- Activity (Enterococcus faecalis [38]): Active
- Activity (Enterococcus faecalis [39]): Active
- Activity (Enterococcus faecalis [40]): Active
